According to patent US9045525B2, “Amyloid β-protein-specific production-inhibiting polypeptide” (THE DOSHISHA, priority 2012, dated 2015):
Peptide text beside a SMILES is read from it.

Key:
[1] = target: γ-secretase against βCTF (C99-FLAG) (Homo sapiens, UniProt P05067); test: γ-Secretase activity inhibition experiment in vitro, C99-FLAG substrate; assay type: biochemical; settings: polypeptide 50 μM, 4 hours, 37° C., Western blotting
Method: A polypeptide having βCTF (C99-FLAG: SEQ ID NO: 16) and mouse-derived Notch protein having a FLAG peptide at the C-terminal side (modification of NCBI Accession No. Q01705.2; SEQ ID NO: 17; hereunder referred to as “Notch”) shown in FIG. 2(A) were each made into a solution having a final concentration of 50 nM.
To these solutions, 9-7 polypeptide, 6-5 polypeptide, #1 polypeptide, #2 polypeptide, #3 polypeptide, and #4 polypeptide were added in such a manner that the final concentrations were 50 μM, followed by reacting with 50 μL of CHAPSO-solubilized membrane fraction (γ-secretase-containing fraction) for 4 hours. The reaction temperature was 37° C. As a negative control experiment, DMSO was used in place of the six types of polypeptides described above.
Each sample after completion of the reaction was measured in the following manner. As shown in FIG. 2(A), a sample using C99-FLAG was subjected to Western blotting using a monoclonal antibody (82E-1) that specifically recognizes the N terminal of C99-FLAG, and the amount of Aβ40 protein produced by the cleavarage by γ-secretase was measured. In contrast, the reaction sample using Notch-FLAG was subjected to Western blotting using an anti-FLAG monoclonal antibody, and the amount of NICD produced to the separete by γ-secretase was also measured. FIG. 2(B) and FIG. 2(C) show the results.
An experiment was conducted in the same manner as in Experimental Example 1 described above, except that only #1 polypeptide was used and the amount of #1 polypeptide was selected so that the final concentrations were 0.5, 1, 5, 10, 20, and 50 μM.
An experiment was conducted in the same manner as in Experimental Example 1 described above, except that S4 polypeptide was used as the polypeptide, and each addition amount was set in such a manner that the final concentrations were 1, 5, 10, 20, and 50 μM. In this Experimental Example, #4 polypeptide was added in such a manner that the final result was 50 μM.

[2] = target: β-secretase against APP (APP-EQ-FLAG) (Homo sapiens, UniProt P05067); test: β-Secretase activity inhibition experiment in vitro, APP-EQ-FLAG substrate; assay type: biochemical
Method: A solution containing the polypeptide having APP (APP-EQ-FLAG: SEQ ID NO: 18) as shown in FIG. 5(A) was prepared in such a manner that its final concentration was 50 nM.
To this solution, 9-7 polypeptide, 6-5 polypeptide, #1 polypeptide, #2 polypeptide, #3 polypeptide, #4 polypeptide, #5 polypeptide, #6 polypeptide, #7 polypeptide, #8 polypeptide, #9 polypeptide, and #10 polypeptide were added in such a manner that each solution had the final concentration of 50 μM, followed by reacting with 50 μL β-secretase (0.02 U/μL) for 4 hours. The reaction temperature was 37° C. As a negative control experiment, DMSO was used in place of the 12 types of polypeptides mentioned above.
After completion of the reaction, each sample was subjected to Western blotting using a monoclonal antibody (82E-1) that specifically recognizes the N terminal of APP-EQ-FLAG as shown in FIG. 5(A). Thereafter, the amount of Aβ33-FLAG protein separated by β-secretase was measured.
An experiment was conducted in the same manner as Experimental Example 4 described above except that S4 and #4 polypeptides were used as the polypeptide and the amounts of these polypeptides added were adjusted so that the final concentrations were 1, 5, 10, 20, 50, and 100 μM.

[3] = test system: CHO-K1 cells (7WD10 cells) that stably expressed APP protein; test: Aβ protein production inhibition experiment in 7WD10 cells (sAPPβ, βCTF, Aβ); assay type: cell-based; settings: polypeptide 1, 5, 10, 20, and 50 μM
Method: An experiment was conducted wherein #1, #2, and #4 polypeptides were reacted with CHO-K1 cells (7WD10 cells) that stably expressed APP protein and transiently expressed Notch to confirm the production of Aβ protein and cleavage of Notch protein.

[4] = test system: Aβ protein in hippocampus; test: Aβ protein production inhibition after direct administration in mouse hippocampus; assay type: in vivo; settings: C57BL/6 mouse, 0.2 ng/g directly in right-side hippocampus, three hours after administration, relative to rev#4
Method: A #4 polypeptide solution using 50% DMSO as a solvent was administered to a C57BL/6 mouse in an amount of 0.2 ng/g. The solution was directly administered in the right-side hippocampus of the mouse. Three hours after administration, the right-side hippocampus was extracted, and the amount of Aβ protein extracted by TBS and 6M guanidine hydrochloride was measured by using the sandwich ELISA method (product name: human/rat β amyloid (40) ELISA Kit Wako for immunochemistry, product No. 294-62501; product name: human/rat β amyloid (42) ELISA Kit Wako for immunochemistry, product No. 290-62501: both manufactured by Wako Pure Chemical Industries, Ltd.). As a negative control experiment, a polypeptide (rev#4: SEQ ID NO: 19) having the amino acid sequence in inverse order of #4 polypeptide was administered to the left-side hippocampus of the same mouse.
FIG. 9 is a graph showing the Aβ protein extracted from the mouse was quantified. The vertical axis indicates the relative value taking the result of negative control experiment in which rev#4 polypeptide was administered as 100%.

APP in CHO-K1 cells = target: T1, APP in CHO-K1 cells (Cricetulus griseus, UniProt A0A8C2MGG8); test: Analysis of subcellular distribution in CHO-K1 cells; assay type: cell-based; settings: Biotin-modified #4 polypeptide, avidin-modified Alexa488; CHO-K1 cells expressing endogenous APP at a low level
T1 construct: CHO-K1 cells expressing endogenous APP protein at a low level; endogenous in cells; host or cells: CHO-K1
T1 sequence (A0A8C2MGG8 18-770): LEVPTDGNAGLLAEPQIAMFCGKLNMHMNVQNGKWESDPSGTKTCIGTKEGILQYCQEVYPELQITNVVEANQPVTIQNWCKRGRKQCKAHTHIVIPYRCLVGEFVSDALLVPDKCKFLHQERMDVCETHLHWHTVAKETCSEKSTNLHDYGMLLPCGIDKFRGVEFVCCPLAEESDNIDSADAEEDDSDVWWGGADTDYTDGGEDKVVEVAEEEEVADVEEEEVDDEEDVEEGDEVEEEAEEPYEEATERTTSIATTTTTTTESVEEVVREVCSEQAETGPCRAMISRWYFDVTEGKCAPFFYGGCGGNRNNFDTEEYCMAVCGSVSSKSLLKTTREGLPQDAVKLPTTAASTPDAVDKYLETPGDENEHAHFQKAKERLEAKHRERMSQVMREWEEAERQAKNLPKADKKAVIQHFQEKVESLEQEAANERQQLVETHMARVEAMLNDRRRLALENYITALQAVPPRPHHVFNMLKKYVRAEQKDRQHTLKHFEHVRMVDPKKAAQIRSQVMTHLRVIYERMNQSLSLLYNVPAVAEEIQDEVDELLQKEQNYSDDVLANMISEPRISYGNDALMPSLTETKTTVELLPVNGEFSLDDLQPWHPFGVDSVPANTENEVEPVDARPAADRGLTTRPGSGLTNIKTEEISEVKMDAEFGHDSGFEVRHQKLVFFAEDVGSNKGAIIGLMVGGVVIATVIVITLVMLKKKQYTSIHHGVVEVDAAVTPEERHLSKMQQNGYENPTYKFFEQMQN
Method: (§1) Biotin-modified #4 polypeptide was prepared using a known method. This polypeptide was allowed to react with CHO-K1 cells and the 7WD10 cells mentioned above, and the resulting cells were immobilized, and then treated with Triton X-100. Thereafter, avidin-modified Alexa488 was reacted with the above. As the negative control experiment, an experiment was conducted reacting avidin-modified Alexa 488 in place of Biotin-modified #4 polypeptide.

[5] = target: T2, APP in 7WD10 cells overexpressing APP (Homo sapiens, UniProt P05067); test: Analysis of subcellular distribution in 7WD10 cells; assay type: cell-based; settings: Biotin-modified #4 polypeptide
T2 construct: expressed in transfected cells; host or cells: 7WD10
Method: as §1

[6] = Intraperitoneal administration of FITC-modified polypeptide, localization around the hippocampus; assay type: in vivo; settings: FITC-modified #4 polypeptide, 150 mg/kg intraperitoneally, three consecutive days, mouse
Method: Subsequently, FITC-modified #4 polypeptide prepared by using a known method was intraperitoneally administered to a mouse. The dose was 150 mg/kg, and the administration was conducted for three consecutive days. Four days after, the mice were euthanized to prepare test pieces of tissue around the hippocampus. As the negative control experiment, DMSO was administered in place of FITC-modified #4 polypeptide.
In the figure, “CPLV” indicates the area called the “choroid plex” for producing cerebrospinal fluid.

CC[C@H](C)[C@H](NC(=O)[C@H](CC(=O)O)NC(=O)[C@@H](NC(=O)[C@@H](NC(=O)[C@H](CS)NC(=O)[C@H](Cc1ccc(O)cc1)NC(=O)[C@H](CS)NC(=O)[C@H](CC(=O)O)NC(=O)[C@H](CS)NC(=O)[C@@H](NC(=O)[C@@H](NC(=O)[C@H](CC(C)C)NC(=O)[C@H](Cc1c[nH]cn1)NC(=O)[C@H](CCSC)NC(C)=O)C(C)C)[C@@H](C)CC)[C@@H](C)O)[C@@H](C)O)C(=O)N[C@@H](CS)C(=O)N[C@@H](Cc1ccc(O)cc1)C(=O)N[C@@H](CS)C(=O)N[C@@H](Cc1ccc(O)cc1)C(=O)N[C@@H](CO)C(=O)N[C@@H](CS)C(=O)N[C@H](C(=O)N1CCC[C@H]1C(=O)N[C@@H](CC(N)=O)C(N)=O)[C@@H](C)O [#4] (Ac-MHLVICDCYCTTDICYCYSCTPN-NH2)
cleavage activity of γ-secretase against βCTF (Aβ40 from C99-FLAG) [1]: inhibited more cleavage activity of γ-secretase against βCTF | cleavage activity of β-secretase against APP (Aβ33-FLAG) ([2]; polypeptide 50 μM, 4 hours, 37° C., Western blotting): inhibit the cleavage activity of β-secretase against APP more intensely | cleavage activity of β-secretase against APP ([2]; polypeptide 1, 5, 10, 20, 50, and 100 μM): inhibited the cleavage activity of β-secretase against APP in a concentration-dependent manner | Aβ protein in the cell culture medium (released Aβ) [3]: decreased depending on the concentration | Aβ protein in the cell lysate (intracellular Aβ) [3]: no longer present in a manner dependent on the final concentration | sAPP in the cell lysate [3]: no longer present in a manner dependent on the final concentration | βCTF (C99) in the cell lysate [3]: no longer present in a manner dependent on the final concentration | Aβ protein production in hippocampus (sandwich ELISA) [4]: remarkably inhibited Aβ protein production | binding to APP in cells (APP in CHO-K1 cells): binded to APP in the cells | entry into cells ([5]; CHO-K1 and 7WD10 cells): entering the cells | binding to intracellular APP ([5]; avidin-modified Alexa488, 7WD10 cells overexpressing APP): remarkably binded also to the intracellular APP | presence of polypeptide in CA1 region (fluorescent microscopy) [6]: a portion dyed green indicating the presence of #4 polypeptide was confirmed | presence of polypeptide in choroid plex (CPLV) [6]: a portion dyed green indicating the presence of #4 polypeptide was confirmed in the blood vessel | presence of polypeptide in dentate gyrus (DG) [6]: a portion dyed green indicating the presence of #4 polypeptide was also confirmed
